Literature values in US11033578B2, “Nutritional supplement for growth enhancement” (Nutritional Growth Solutions LTD, priority 2013, dated 2021).

What was measured:
[1] = system: initially stunted infants; conditions: daily syrup for six months; vs placebo
children = conditions: meta analysis; 95% CI: 0.46, 2.51

## zinc [zinc-alone]
[1]
  mean height for age Z-score: decreased to a greater extent than placebo

## [Fe] [iron]
children
  increase in hemoglobin concentrations, effect size: 1.49
